According to ChEMBL document CHEMBL5608205, “Design, synthesis and biological evaluation of novel SIRT3 inhibitors targeting both NAD+ and substrate binding sites for the treatment of acute myeloid leukemia” (Eur J Med Chem, 2024):

How the values were obtained:
[1] = target: T1, NAD-dependent protein deacetylase sirtuin-3, mitochondrial (Homo sapiens, UniProt Q9NTG7); assay: Inhibition of wild type C-terminal human SIRT3 (118 to […] residues) expressed in Escherichia coli strain BL21DE3 Rosetta2 using Fluor de lys as substrate incubated for 30 mins by fluorescence based analysis
T1 sequence (Q9NTG7 whole entry): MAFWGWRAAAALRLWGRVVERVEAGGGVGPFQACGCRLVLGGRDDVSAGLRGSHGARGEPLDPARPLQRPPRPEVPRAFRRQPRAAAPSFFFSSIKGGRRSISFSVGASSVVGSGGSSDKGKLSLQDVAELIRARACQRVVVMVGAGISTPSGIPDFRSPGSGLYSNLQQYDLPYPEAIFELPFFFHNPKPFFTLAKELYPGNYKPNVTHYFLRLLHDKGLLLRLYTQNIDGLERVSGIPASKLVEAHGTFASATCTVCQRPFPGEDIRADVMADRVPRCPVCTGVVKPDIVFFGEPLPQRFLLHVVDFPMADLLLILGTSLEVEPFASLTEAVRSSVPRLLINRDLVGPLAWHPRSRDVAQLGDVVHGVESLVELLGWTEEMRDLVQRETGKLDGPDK

[2] = system: HL-60; assay: cells; settings: Homo sapiens, HL-60, 24 h
[3] = system: MOLM-13; assay: cells; settings: Homo sapiens, MOLM-13, 24 h
[4] = system: MV4-11; assay: cells; settings: Homo sapiens, MV4-11, 24 h
[5] = Toxicity in nude mouse assessed as effect on spleen at 5 mg/kg, ip administered daily for upto 14 days; format: organism-based; settings: in vivo, 336 h, time < 14 day
[6] = Toxicity in nude mouse assessed as effect on kidney at 5 mg/kg, ip administered daily for upto 14 days; format: organism-based; settings: in vivo, 336 h, time < 14 day
[7] = system: MOLM-13; assay: Induction of apoptosis in human MOLM-13 cells assessed as viable cells at 5 uM incubated for 24 hrs by annexin V/FITC and Propidium Iodide staining based flow cytometry analysis (reference value: 98.1%); format: functional; settings: read-out: Activity
[8] = system: HL-60; assay: Induction of apoptosis in human HL-60 cells assessed as viable cells at 10 uM incubated for 24 hrs by annexin V/FITC and Propidium Iodide staining based flow cytometry analysis (reference value: 98.9%); format: functional; settings: read-out: Activity
[9] = target: T2, NAD-dependent protein deacetylase sirtuin-2 (Homo sapiens, UniProt Q8IXJ6); assay: Inhibition of recombinant human SIRT2 using Fluor de lys as substrate incubated for 30 mins by fluorescence based analysis
T2 sequence (Q8IXJ6 whole entry): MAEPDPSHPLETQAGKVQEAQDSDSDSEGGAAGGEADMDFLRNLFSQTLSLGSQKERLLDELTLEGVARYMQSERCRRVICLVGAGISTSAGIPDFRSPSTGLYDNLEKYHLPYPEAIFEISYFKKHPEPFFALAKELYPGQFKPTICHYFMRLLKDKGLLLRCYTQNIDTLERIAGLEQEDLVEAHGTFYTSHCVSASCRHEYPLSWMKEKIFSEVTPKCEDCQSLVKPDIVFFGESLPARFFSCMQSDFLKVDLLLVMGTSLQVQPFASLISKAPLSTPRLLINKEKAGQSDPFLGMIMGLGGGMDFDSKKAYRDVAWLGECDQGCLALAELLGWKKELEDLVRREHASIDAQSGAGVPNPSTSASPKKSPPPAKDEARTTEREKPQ

[10] = Toxicity in nude mouse assessed as effect on liver at 5 mg/kg, ip administered daily for upto 14 days; format: organism-based; settings: in vivo, 336 h, time < 14 day
[11] = system: HL-60; assay: Induction of apoptosis in human HL-60 cells assessed as viable cells at […] incubated for 24 hrs by annexin V/FITC and Propidium Iodide staining based flow cytometry analysis (reference value: 98.9%); format: functional; settings: dose 2.5 µM, read-out: Activity
[12] = system: MV4-11; assay: Induction of apoptosis in human MV4-11 cells assessed as viable cells at 5 uM incubated for 24 hrs by annexin V/FITC and Propidium Iodide staining based flow cytometry analysis (reference value: 95.4%); format: functional; settings: read-out: Activity
[13] = Toxicity in nude mouse assessed as effect on body weight at 5 mg/kg, ip administered daily for upto 14 days; format: organism-based; settings: in vivo, 336 h, time < 14 day
[14] = system: MV4-11; assay: Induction of apoptosis in human MV4-11 cells assessed as viable cells at 10 uM incubated for 24 hrs by annexin V/FITC and Propidium Iodide staining based flow cytometry analysis (reference value: 95.4%); format: functional; settings: read-out: Activity
[15] = system: HL-60; assay: Induction of apoptosis in human HL-60 cells assessed as viable cells at 5 uM incubated for 24 hrs by annexin V/FITC and Propidium Iodide staining based flow cytometry analysis (reference value: 98.9%); format: functional; settings: read-out: Activity
[16] = system: MOLM-13; assay: Induction of apoptosis in human MOLM-13 cells assessed as viable cells at 10 uM incubated for 24 hrs by annexin V/FITC and Propidium Iodide staining based flow cytometry analysis (reference value: 98.1%); format: functional; settings: read-out: Activity
[17] = Toxicity in nude mouse assessed as effect on brain at 5 mg/kg, ip administered daily for upto 14 days; format: organism-based; settings: in vivo, 336 h, time < 14 day
[18] = system: MV4-11; assay: Induction of apoptosis in human MV4-11 cells assessed as viable cells at […] incubated for 24 hrs by annexin V/FITC and Propidium Iodide staining based flow cytometry analysis (reference value: 95.4%); format: functional; settings: dose 2.5 µM, read-out: Activity
[19] = system: MOLM-13; assay: Induction of apoptosis in human MOLM-13 cells assessed as viable cells at […] incubated for 24 hrs by annexin V/FITC and Propidium Iodide staining based flow cytometry analysis (reference value: 98.1%); format: functional; settings: dose 2.5 µM, read-out: Activity
[20] = Toxicity in nude mouse assessed as effect on heart at 5 mg/kg, ip administered daily for upto 14 days; format: organism-based; settings: in vivo, 336 h, time < 14 day
[21] = Toxicity in nude mouse assessed as effect on lung at 5 mg/kg, ip administered daily for upto 14 days; format: organism-based; settings: in vivo, 336 h, time < 14 day
[22] = target: T2, NAD-dependent protein deacetylase sirtuin-2; assay: Inhibition of SIRT2 (unknown origin)
[23] = target: T1, NAD-dependent protein deacetylase sirtuin-3, mitochondrial; assay: Inhibition of recombinant human SIRT3 using Fluor de lys as substrate incubated for 30 mins by fluorescence based analysis

| SMILES | IC50 [2] | IC50 [3] | IC50 [4] | also measured |
| --- | --- | --- | --- | --- |
| Oc1cc(O)cc(/C=C/c2ccc(Br)cc2)c1 | – | – | – | IC50 [1]: 143 µM |
| c1cncc(-c2cnn[nH]2)c1 | > 50 µM | 12.6 µM | 27.8 µM | – |
| C#Cc1cccc(NC(=O)N2C[C@H]3C[C@@H](C2)N3c2ncnc3cc(C(N)=O)sc23)c1 | 38.2 µM | 33.2 µM | 28.7 µM | – |
| NC(=O)c1cc2ncnc(N3[C@@H]4CC[C@H]3CN(C(=O)Nc3ccc(C(F)(F)F)cc3)C4)c2s1 | – | – | – | Activity [5]: Non-Toxic; Activity [6]: Non-Toxic; viability at 5 µM [7]: 67.5%; viability at 10 µM [8]: 73%; IC50 [9]: 0.474 µM; Activity [10]: Non-Toxic; viability at […] [11]: 84.5%; viability at 5 µM [12]: 78.2%; Activity [13]: Non-Toxic; viability at 10 µM [14]: 65%; viability at 5 µM [15]: 78.2%; viability at 10 µM [16]: 62.5%; Activity [17]: Non-Toxic; viability at […] [18]: 85.7%; viability at […] [19]: 90.4%; Activity [20]: Non-Toxic; Activity [21]: Non-Toxic |
| NC(=O)c1cc2ncnc(N3CCN(C(=O)Nc4ccccc4F)CC3)c2s1 | > 50 µM | 39.8 µM | > 50 µM | – |
| Cc1ccc(NC(=O)N2C[C@H]3C[C@@H](C2)N3c2ncnc3cc(C(N)=O)sc23)cc1 | > 50 µM | > 50 µM | > 50 µM | – |
| NC(=O)c1cc2ncnc(N3[C@@H]4CC[C@H]3CN(C(=O)Nc3ccc5ccccc5c3)C4)c2s1 | 17.4 µM | 10.6 µM | 14.7 µM | – |
| NC(=O)c1cc2ncnc(N3CCN(C(=O)Nc4cc(Cl)cc(Cl)c4)CC3)c2s1 | 5.45 µM | 3.47 µM | 7.28 µM | – |
| NC(=O)c1cc2ncnc(N3[C@@H]4C[C@H]3CN(C(=O)Nc3ccc(Cl)c(Cl)c3)C4)c2s1 | 27.1 µM | 25 µM | 19.9 µM | – |
| NC(=O)c1cc2ncnc(N3CCN(C(=O)Nc4ccc(F)cc4F)CC3)c2s1 | > 50 µM | 33.1 µM | > 50 µM | – |
| NC(=O)c1cc2ncnc(N3CCN(C(=O)Nc4ccc(Cl)cc4)CC3)c2s1 | 36.3 µM | 4.26 µM | 12.3 µM | – |
| Cc1ccc(NC(=O)N2C[C@H]3CC[C@@H](C2)N3c2ncnc3cc(C(N)=O)sc23)cc1 | 36.9 µM | 4.73 µM | 18.1 µM | – |
| Cc1ccc(NC(=O)N2CCN(c3ncnc4cc(C(N)=O)sc34)CC2)cc1 | 36.3 µM | 6.27 µM | 25.7 µM | – |
| NC(=O)c1cc2ncnc(N3[C@@H]4C[C@H]3CN(C(=O)Nc3ccccc3Cl)C4)c2s1 | > 50 µM | > 50 µM | > 50 µM | – |
| NC(=O)c1cc2ncnc(N3[C@@H]4C[C@H]3CN(C(=O)Nc3cc(C(F)(F)F)cc(C(F)(F)F)c3)C4)c2s1 | 31.5 µM | 41.5 µM | 26.3 µM | – |
| NC(=O)c1cc2ncnc(N3[C@@H]4C[C@H]3CN(C(=O)Nc3ccc(C(F)(F)F)cc3)C4)c2s1 | 36.6 µM | 38.3 µM | 26.3 µM | – |
| NC(=O)c1cc2ncnc(N3[C@@H]4C[C@H]3CN(C(=O)Nc3ccc(F)cc3F)C4)c2s1 | > 50 µM | > 50 µM | > 50 µM | – |
| CCNC(=S)c1ccc(C(=O)NCCC2CCN(c3ncnc4cc(C(N)=O)sc34)CC2)s1 | – | – | – | IC50 [22]: 0.0027 µM |
| NC(=O)c1cc2ncnc(N3CCN(C(=O)NC4CCCCC4)CC3)c2s1 | 37.1 µM | 17.7 µM | 33.3 µM | – |
| NC(=O)c1cc2ncnc(N3[C@@H]4C[C@H]3CN(C(=O)Nc3cccc(Cl)c3)C4)c2s1 | > 50 µM | 36.1 µM | 34.1 µM | – |
| NC(=O)c1cc2ncnc(N3[C@@H]4CC[C@H]3CN(C(=O)Nc3ccc(Cl)c(Cl)c3)C4)c2s1 | 1.15 µM | 2.35 µM | 5.09 µM | IC50 [23]: 0.125 µM |
